# Data: patent US12083134B2, “Anacardic acid for neural repair” (Vanderbilt University, priority 2018, dated 2024)
# How the values were obtained:
# OPCs = assay: Maturation of OPCs to mature oligodendrocytes, MBP staining after 14 days culture with AA; assay type: cell-based, rat; conditions: AA 1 μM
# Procedure: FIG. 6 provides images showing the increased differentiation of OPCs to mature oligodendrocytes following culture with AA (Ana). OPCs were isolated from rat pups and were cultured with AA where 1 μM of AA was added to the culture every other day for 14 days. At the end of the experiment, the cells were stained and the amount of MBP was assessed using ImagJ software.
# The expression of MBP, a marker for myelin maturation in OPCs, was investigated in the presence and absence of AA (1 μM) following culture with AA for 14 days.
# [1] = system: experimental allergic encephalitis (EAE); assay: EAE prevention, AA from day of immunization with MOG peptide; assay type: in vivo, mice
# Excerpt: In two experiments, only 2 of 10 mice in the AA treated group developed grade 1 paralysis. In the vehicle treated group, 9 out of 10 mice developed paralysis. Clinical scoring: 1=limp tail, 2=ataxia of gait and paralysis of one or more limbs, 3=paralysis of two or more limbs, 4=weakness of all limbs, 5=death.
# (§1) The data is expressed as a percent area of myelin loss in three non-contiguous axial sections of the spinal cord; p<0.01 between treated and untreated groups when AA is given beginning day 0 or from the onset of symptoms.
# (§2) Experimental allergic encephalitis (“EAE”) is an autoimmune inflammatory demyelinating disease of the CNS. For experimental purposes, the disease is induced in animals by immunizing the animals with myelin antigens in adjuvant. […] Ten to twelve days after immunization, paralysis develops in the animals. The degree of paralysis is scored as follows: 1=limp tail, 2=ataxia of gait and paralysis of one or more limbs, 3=paralysis of two or more limbs, 4=weakness of all limbs, 5=death.
# The EAE model has been used extensively to examine the efficacy of potential drugs for MS therapy. The efficacy of AA in preventing EAE in mice immunized with MOG peptide in adjuvant was tested. A total of 10 mice were administered 0.25 mg/kg of AA dissolved in DMSO (vehicle) and a total of 10 mice were administered the vehicle alone by intraperitoneal injection daily for the entire length of the study (28 days). AA was obtained from commercial sources. Nine of 10 animals in the vehicle group developed paralytic signs, with a mean maximal paralytic score of 2.66. Two of 10 animals that received AA developed paralysis which was scored as a grade 1 paralysis (P<0.01 treated versus placebo). There was also significant decrease in the loss of myelin in the […]. (FIG. 13).
# To confirm that the clinical scores calculated in the EAR experiments reflect pathology, the extent of demyelination in the cervical, thoracolumbar cord of each mouse in the vehicle treated and AA treated groups was examined. […]
# IL-33 protein in OPCs = assay: Western blot of IL-33 protein in OPCs (nuclear extracts) cultured with AA; assay type: cell-based, rat; conditions: for increase in the protein level of IL-33: OPCs
# Procedure: FIG. 5 (top) provides the results of Western blot studies showing increased expression of IL-33 in the presence of AA in OPCs. […] Because IL-33 is mainly in the nucleus, the Wester blots were done with nuclear extracts and Lamin was used as the control.
# In addition, at a dose of 2.5 μM of AA, there was a 1.8 fold increase in the protein level of IL-33, and at a dose of 7.5 μM of AA, there was a 3.1 fold increase in the protein level of IL-33 (FIG. 5).
# [2] = system: experimental allergic encephalitis (EAE); assay: EAE treatment, AA from earliest onset of paralytic signs; assay type: in vivo, mice
# Excerpt: as §1, §2
# To determine if treatment with AA would promote recovery after paralytic attack, the experiment shown in FIG. 13 was repeated but treatment with AA was not initiated until the earliest sign of disease appeared which occurred between days 11 and 12 following the initial immunization with MOG antigen. In the experiment, 10 mice were administered 0.25 mg/kg AA a day in DMSO and 10 mice were administered DMSO (vehicle). In the 10 mice that received 0.25 mg/kg AA a day, there was no difference in the mean maximal severity of the disease when compared to vehicle treated mice. The mean maximal severity was 2.8 in the vehicle treated group and was 2.6 in the AA treated group. However, there was a rapid reversal of paralysis in the AA treated group.
# When AA was administered at the earliest onset of clinical signs of paralysis, the percent demyelination score in the AA treated group was 2.9. In comparison, in the vehicle treated group the percent demyelination score was 7.2 (P<0.01) (FIG. 15).
# MBP in OPCs = assay: Western blot of MBP in OPCs cultured with AA for 10 days; assay type: cell-based, rat
# Procedure: To further verify the ability of AA to induce MBP protein synthesis, 4×10^6 OPCs were cultured in poly-D lysine coated culture dishes with and without AA for 10 days. The AA concentrations that were studied were as follows: 1, 2.5, 5, 7.5, and 10 μM. The growth medium was changed every three days. […] Upon culture in vitro, OPCs differentiated and became myelin expressing cells, a process which took about 7-14 days.
# IL-33 expression in OPCs = assay: q-PCR on the induction of IL-33 in OPCs cultured with AA; assay type: cell-based, rat; conditions: 3 h, relative to GAPDH, vehicle = 1.00
# Procedure: The effect of AA on the expression of myelin genes, MBP, and IL-33 was examined. […] Natarajan et al., PLOS One, 11(3):e0152163 (2016); Sriram et al., Neurology, Abstract presented at the American Academy of Neurology, 2016 (2016). The studies were done in OPCs obtained from rat pups. OPCs were treated with AA (2.5 μM) for 3 hours and message levels were quantified using qPCR analysis. OPCs treated with AA induced the major myelin genes Mbp, Mog and Plp.
# The expression of IL-33 induced by AA in OPCs was also examined. […] (FIG. 3). The data is expressed as fold change compared to the control protein GAPDH.
structure (smiles),measurement,setting,value
"CCCCCCCCCCCCCCCc1cccc(O)c1C(=O)O [AA, anacardic acid]",increase in the expression of MBP vs normal growth medium,OPCs,2.1 fold
same,demyelination in the spinal cord,"[1]; AA 0.25 mg/kg daily from day 0, vehicle 9.9+/−4.0 percent",no demyelination
same,animals that developed paralysis,"[1]; AA 0.25 mg/kg ip daily for 28 days from immunization, vehicle nine of 10, P<0.01",2 of 10 and Two of 10
same,grade of paralysis (clinical score 1-5),"[1]; AA 0.25 mg/kg ip daily from immunization, affected animals",1
same,"increase in IL-33 protein expression (image analysis of gels, FIG. 5)","IL-33 protein in OPCs; OPCs nuclear extracts, Lamin control, concentration not given",1.6 fold
same,increase in the protein level of IL-33,IL-33 protein in OPCs; AA 2.5 μM,1.8 fold
same,increase in the protein level of IL-33,IL-33 protein in OPCs; AA 7.5 μM,3.1 fold
same,mean maximal severity (clinical score),"[2]; AA 0.25 mg/kg a day from earliest sign of disease (days 11-12), vehicle 2.8",2.6
same,percent demyelination score,"[2]; AA 0.25 mg/kg/day from earliest onset of clinical signs, vehicle 7.2, P<0.01",2.9%
same,recovery from paralysis,"[2]; by day 24, AA 0.25 mg/kg a day from onset, one animal grade 2 weakness",all the other mice had fully recovered
same,"increase in the expression of MBP (image analysis, FIG. 4)","MBP in OPCs; OPCs cultured with AA, concentration not given",2.4 fold
same,level of MBP (Western blot),"MBP in OPCs; OPCs, AA 1, 2.5, 5, 7.5 and 10 μM, 10 days",increased the level of MBP in a dose dependent manner
same,Fold change of IL-33 expression,IL-33 expression in OPCs; AA 2.5 μM,8.54 fold
same,Fold change of IL-33 expression,IL-33 expression in OPCs; AA 5 μM,4.77 fold
